Experimental data: paper PMC7696741, “Synthesis, Characterization and Assessment of the Antioxidant Activity of Cu(II), Zn(II) and Cd(II) Complexes Derived from Scorpionate Ligands” (Molecules, 2020)
Where two headings read alike, the source gives them in different places.

Key:
[1] = Nitric oxide scavenging activity (sodium nitroprusside / Griess reagent); type: biochemical; details: sodium nitroprusside in PBS, light, 150 min, 577 nm, read-out: Oxygen Species Radicals IC50, NO
Experimental: (§1) We have carried out both enzymatic and non-enzymatic assays to evaluate the antioxidant properties of all the synthesized scorpionate complexes of Cu(II), Zn(II) and Cd(II) (1–9). All complexes were used at an initial concentration of 2.5 mM diluted in methanol.
In order to determine the scavenging activity of the metal complexes against NO radicals, samples were added to a 96-well plate dish with a flat bottom, and were serially diluted by the same procedure used in the previous assays. In all wells, 100 μL of PBS and 50 μL of sodium nitroprusside dissolved in saline phosphate buffer (PBS), were added. The plate with the samples was incubated in the presence of light at room temperature for 150 min. Finally, an equal volume of 50 μL of Griess reagent was added to each well in order to measure the nitrite content. The plate was incubated at room temperature for 10 min until chromophore formation, and the absorbance was measured at 577 nm in a microplate reader (Molecular Devices, Sunnyvale, CA, USA).

[2] = Overall evaluation of scavenging (antioxidant) activity, all radical assays; type: biochemical; details: conclusions, all radical assays together
Experimental: as §1

[3] = Hydrogen peroxide radicals scavenging activity; type: biochemical; details: hydrogen peroxide in PBS, 10 min, 230 nm; read-out: Oxygen Species Radicals IC50, OOH
Experimental: as §1
In order to determine the scavenging activity of H2O2 of different complexes or standards in methanol, the compounds were diluted in series in a 96-well flat-bottom plate with the same procedure used in previous assays. Then, 200 μL of peroxide solution was added to the various wells hydrogen in PBS (final volume, 250 μL). After 10 min of incubation, the absorbance was measured at 230 nm with a microplate reader.

[4] = DPPH radical scavenging activity; type: biochemical; details: DPPH 100 μM in methanol, 37 °C, absorbance 490 nm
Experimental: as §1
The antioxidant properties of the compounds or control substances have been measured by DPPH, which is able to react with various natural or synthetic antioxidants. A dose response curve was plotted to determine the IC50 values, and the following formula was used to calculate the percentage of radical scavenging:Radical scavenging % = [(A0 − Ac)/A0] × 100 where A0 is the absorbance of the control sample, containing the reagents except the test substance, and Ac is the absorbance of the solution of the various complexes and of the control measured after 30 min of incubation at 37 °C. Any determination is performed in triplicate.
In order to determine the DPPH radical scavenging activity of different scorpionate complexes, the compounds or standards in methanol were diluted in series in the 96 well plate with a flat bottom. The solvent used is usually the same used to dissolve the samples. In various wells containing the compounds and standards, 200 μL of DPPH in methanol solution (100 μM) were added to reach a final volume of 250 μL in all wells. After incubation at 37 °C for 20 min, the absorbance of samples was determined at 490 nm (Multiskan JX, Thermo Labsystems Oy, Vantaa, Finland). Trolox was used as a control and was loaded into the plate with the same method and dilution of the samples.

[5] = Solubility of the isolated complexes; type: physicochemical; details: for Solubility in chlorinated solvents, alcohols, acetonitrile, dimethylsulfoxide and dimethylformamide: organic solvents as listed
[6] = Hydroxyl radicals scavenging activity (L-ascorbic acid-CuSO4 / cytochrome c); type: biochemical; details: L-ascorbic acid-CuSO4, cytochrome c oxidation, pH 7.4, 550 nm; read-out: Oxygen Species Radicals IC50, OH
Experimental: as §1
The scavenging activity of superoxide radicals was determined by the method of Liu and Ng, slightly modified by Kang and Lee. Hydroxyl radicals, generated in the L-ascorbic acid-CuSO4 system, with the reduction of Cu^2+, were analyzed by the oxidation of cytochrome c in 96 microplate wells. The hydroxyl radicals were generated in 200 μL of 10 mM buffer sodium phosphate (pH 7.4), containing […], 12 μM reduced cytochrome c and the samples to be analyzed in different concentrations. The reduction of cytochrome c is produced with the addition of an excess of dithiothreitol to a solution of cytochrome c and followed by Sephadex G-15 chromatography (bed volume, 10 mL) to remove the excess of dithiothreitol.
The compounds or standards in methanol were diluted in series in a 96-well flat-bottomed plate. Stock solution was prepared in phosphate buffer (pH 7.4) containing 100 μM L-ascorbic acid and 100 μM CuSO4. Then, 200 μL of this solution was added to each well and, finally, 10 μL of 120 μM reduced cytochrome c, was added to the plate and was left to incubate for 20 min at room temperature. The change in absorbance, caused by the oxidation of cytochrome c, was measured at 550 nm with a microplate reader (Molecular Devices, Sunnyvale, CA, USA). A thiourea solution (500 μM) was used as a positive control. The scavenging activity of hydroxyl radicals of 500 […] solution of thiourea was taken as 100%. The scavenging activity of hydroxyl radicals has been calculated using the following formula:hydroxyl scavenging radicals (%) = (A − A0)/(AT − A0) × 100 where A is the absorbance of the samples, and AT and A0 is the absorbance of the thiourea and the control, respectively.

[7] = Superoxide radicals scavenging activity (PMS-NADH/NBT system); type: biochemical; details: for IC50: PMS-NADH/NBT, Tris-HCl pH 8.0, absorbance 560 nm, read-out: Oxygen Species Radicals IC50, O2^−
Experimental: as §1
The scavenging activity of superoxide radicals was determined by the method of Liu and Ng, slightly modified by Kang and Lee. Superoxide radicals are generated in the phenazine methosulfate-nicotinamide adenine dinucleotide (PMS-NAD) system, responsible for the oxidation of NADH (reduced form of NAD) that was analyzed by reducing the nitro blue tetrazolium chloride NBT in a microplate assay.
In a 96 well plate, samples or control were subjected to a serial dilution with 20 mM Tris-HCl (pH 8.0). Superoxide radicals are generated by adding in 200 μL of 20 mM Tris-HCl (pH 8.0), containing 78 mM NADH, NBT 50 mM to each well and 10 μL are added to the various samples of PMS 10 mM. The reaction between superoxide radicals and NBT develops a blue color, whose intensity decreases proportionally in the presence of the antioxidant compound. The change in absorbance in the various wells is measured at 560 nm with a microplate reader (Molecular Devices, Sunnyvale, CA, USA). L-ascorbate was used as a positive control. The interaction relationship with the superoxide radical (%) was calculated using the following formula:superoxide radical (%) = ((A − A1)/A) × 100 where A is the absorbance of the positive control, and A1 is the absorbance of the test samples.

[8] = ABTS radical scavenging activity; type: biochemical; details: ABTS+· in methanol, 10 min dark, room temperature, absorbance 630 nm
Experimental: as §1
Total antioxidant activity was assessed as a measure of radical scavenging activity of the complexes examined against the cationic radical ABTS^+. The method is valid for both hydrophilic and hydrophobic antioxidants. The working solution is produced by the oxidation of an initial solution of ABTS, which is oxidized to ABTS^+· through the reaction with K2S2O8 (2.45 mM) and left in the dark for 12 h. After incubation, the ABTS^+· solution is diluted with methanol to obtain an absorbance of 0.706 ± 0.001 units at 734 nm, which is used as a solution for the analysis of scavenger activity.
Radical scavenging ability is measured with a modified method described initially by Re et al. for the application of a microplate 96 wells. Compounds or standards in methanol were diluted in series in the 96 well plate, as previously described. Trolox was used as a control and was loaded into the plate with the same method and dilution of the samples. The reaction is started with the addition of 200 μL of the ABTS^+· solution (final volume in the wells, 250 μL). The reaction mixture is allowed to stand in the dark for 10 min at room temperature, and the absorbance at 630 nm is measured (Multiskan JX, Thermo Labsystems Oy, Vantaa, Finland). The radical scavenging activity is estimated through the absorbance decrease at 630 nm and can be expressed as the equivalent Trolox.

[9] = Air and moisture stability of the isolated powders; type: physicochemical; details: pure powders
[10] = read-out: SOD activity IC50, cited from earlier work

| Molecule | IC50 [1] | Antioxidant (scavenging) activity, overall verdict [2] | IC50 [3] | IC50 [4] | Solubility in chlorinated solvents, alcohols, acetonitrile, dimethylsulfoxide and dimethylformamide [5] | Solubility in water [5] | IC50 [6] | IC50 [7] | SOD-mimic activity, times less than native bovine Cu-Zn-SOD ([7]; ratio of superoxide IC50 to native bovine Cu-Zn-SOD (IC50 = 0.48 μM)) | IC50 [8] | Solubility in most organic solvents [5] | Stability to air and moisture [9] | IC50 ([10]; reported scorpionate complex ref 21) | IC50 ([10]; reported scorpionate complex ref 20) | IC50 ([10]; native enzyme, literature value ref 47) |
| --- | --- | --- | --- | --- | --- | --- | --- | --- | --- | --- | --- | --- | --- | --- | --- |
| CC(C)(C)c1cc[nH]n1.CC(C)(C)c1cc[nH]n1.CC(C)(C)c1cc[nH]n1.[Cl][Cu][Cl] [Complex 3, [Cu(Hpz^t^Bu)3Cl2]] | > 5 mM | moderate antioxidant activity | > 5 mM | 0.0766 ± 0.0025 mM | soluble | insoluble | > 5 mM | 0.233 ± 0.004 mM | 500 times | 0.0972 ± 0.0038 mM | – | – | – | – | – |
| Cc1ccc2c(cnn2[BH-](n2ncc3cc(C)ccc32)n2ncc3cc(C)ccc32)c1.Cc1ccc2c(cnn2[BH-](n2ncc3cc(C)ccc32)n2ncc3cc(C)ccc32)c1.ClCCl.[Zn+2] [Complex 4, [Zn(Tp^4Bo,5Me)2]⋅CH2Cl2] | – | – | – | – | soluble | insoluble | – | – | – | – | good solubility | air and moisture stable | – | – | – |
| ClCCl.ClCCl.ClCCl.ClCCl.[Zn+2].c1ccc2c(c1)CCc1cn([BH-](n3cc4c(n3)-c3ccccc3CC4)n3cc4c(n3)-c3ccccc3CC4)nc1-2.c1ccc2c(c1)CCc1cn([BH-](n3cc4c(n3)-c3ccccc3CC4)n3cc4c(n3)-c3ccccc3CC4)nc1-2 [Complex 5, [Zn(Tp^a)2]⋅4CH2Cl2] | – | moderate antioxidant activity | – | – | soluble | insoluble | – | – | – | – | good solubility | air and moisture stable | – | – | – |
| Cc1ccc2c(cnn2[BH-](n2ncc3cc(C)ccc32)n2ncc3cc(C)ccc32)c1.Cc1ccc2c(cnn2[BH-](n2ncc3cc(C)ccc32)n2ncc3cc(C)ccc32)c1.[Cd+2] [Complex 7, [Cd(Tp^4Bo,5Me)2]] | > 5 mM | – | > 5 mM | > 5 mM | soluble | insoluble | > 5 mM | > 5 mM | – | > 5 mM | good solubility | air and moisture stable | – | – | – |
| CC(C)(C)c1cc[nH]n1.CC(C)(C)c1ccn([BH2-]n2ccc(C(C)(C)C)n2)n1.[Cl][Cd+] [Complex 9, [Cd(Bp^t^Bu)(Hpz^t^Bu)Cl]] | > 5 mM | moderate antioxidant activity | > 5 mM | > 5 mM | soluble | insoluble | > 5 mM | > 5 mM | – | 0.151 ± 0.0042 mM | – | – | – | – | – |
| Cc1c(C)c2c(c(C)c1O)CCC(C)(C(=O)O)O2 (stereo not shown) [Trolox, reference compound] | > 5 mM | – | > 5 mM | 0.0199 ± 0.0015 mM | – | – | > 5 mM | > 5 mM | – | 0.00401 ± 0.0007 mM | – | – | – | – | – |
| O=C(O)c1ccc(P(c2ccccc2)c2ccccc2)cc1.O=C(O)c1ccc(P(c2ccccc2)c2ccccc2)cc1.[Cu+].c1cnn([B-](n2cccn2)(n2cccn2)n2cccn2)c1 [[Cu(PPh2(4-C6H4COOH))2(pzTp)]] | – | – | – | – | – | – | – | – | – | – | – | – | 0.0046 mM | – | – |
| Brc1cnn([BH-](n2cc(Br)cn2)n2cc(Br)cn2)c1.O=C(O)c1ccc(P(c2ccccc2)c2ccccc2)cc1.[Cu+] [[Cu(PPh2(4-C6H4COOH))(Tp^4Br)]] | – | – | – | – | – | – | – | – | – | – | – | – | – | 0.0062 mM | – |
| [Zn(Tp^t^Bu)Cl] [Complex 6] | > 5 mM | – | > 5 mM | > 5 mM | soluble | insoluble | > 5 mM | > 5 mM | – | 0.0579 ± 0.0034 mM | – | – | – | – | – |
| native bovine Cu-Zn-SOD: native bovine copper-zinc superoxide dismutase enzyme | – | – | – | – | – | – | – | – | – | – | – | – | – | – | 0.00048 mM |
